Experimental data reported in patent US20230140972A1, “GLYCEROL GLUCOSIDE-BASED COMPOUND AND COMPOSITION COMPRISING SAME FOR ULTRAVIOLET LIGHT SHIELD OR ANTI-INFLAMMATION” (ATHENA CO., LTD., priority 2020, published 2023).
Where “and” joins values, the source holds several entries; their conditions need not be identical. Identical values can stand only once.

Tested on: RAW264.7 cells
Assay: Cell viability measurement using MTT assay
Assay type: cell-based, mouse
Conditions: vs untreated group
Procedure: In order to evaluate a cell viability of the glycerol glucoside-based compound sample (EPS-S), an MTT assay was performed.
Specifically, subcultured RAW264.7 cells and HDF cells were aliquoted into a 96-well plate at 1×10^5, respectively, and cultured for 24 hours at 37° C. in an incubator containing 5% carbon dioxide, and then, a culture media was replaced with a serum-free media. Then, each sample was treated onto each cell by concentration. After culturing for 24 hours, an MTT solution was put into each well, reacted for 2 hours under light blocking, a supernatant was removed, a formed formazan was completely dissolved in DMSO, and an absorbance was measured at 540 nm with a microplate reader. In such a case, SDS was used as a positive control group. The test result value was calculated as in Equation 1 below and expressed as the cell viability compared to an untreated group, and was expressed as a mean±standard deviation.

## CCCCCCCCCCCCOS(=O)(=O)[O-].[Na+] [SDS]
24 h, 1 ppm
  cell viability: 99.95% and 99.95 ± 0.72%
24 h, 10 ppm
  cell viability: 96.29% and 96.29 ± 0.16%
24 h, 100 ppm
  cell viability: 7.75% and 7.75 ± 0.14%
24 h, 1,000 ppm
  cell viability: 6.67% and 6.67 ± 0.16%
